Paper PMC7010350 (ACS chemical biology, 2019)

Experiments:
Format in all cases: physicochemical
[1] = Thermostability, heat treatment at 95 °C for 2 h, LC-MS
[2] = Solubility of the lyophilized peptide on resuspension in water or methanol; details: aqueous suspension relyophilized and resuspended in methanol
[3] = Susceptibility of the disulfide bond to reduction with DTT or β-mercaptoethanol; details: LC-MS

| solubility in methanol (in words) [2] | peptide reduced, 20 mM DTT with heating ([3]; 20 mM DTT, 95 °C for 2 h) | reduction of the disulfide bond, 20 mM DTT, room temperature ([3]; 20 mM DTT, room temperature 1 h, aqueous peptide 5.8 mg/mL) | peptide reduced, 5% β-ME with heating (in words) ([3]; 5% (~641 mM) β-mercaptoethanol, 95 °C for 2 h) | Substance | thermally induced unthreading (in words) [1] |
| --- | --- | --- | --- | --- | --- |
|  |  |  |  | pandonodin C16A C21A [pandonodin AA] | significantly more pandonodin AA unthreaded than did wild-type pandonodin |
| readily dissolved | less than 10% | no reduction products were observed | a majority of pandonodin was reduced | pandonodin | only minimal unthreading |
